Source: publication PMC5218480 (PLoS ONE, 2017)

System: MV-4-11 cells
Assay: Gene expression microarray analysis (Affymetrix PrimeView) and GSEA
Format: cell-based, human
Design: RFU PODN (11730768_x_at) / Fold change /veh PODN (11730768_x_at) / RFU LINC00158 (11744669_a_at) / Fold change /veh LINC00158 (11744669_a_at) / RFU DUSP10 (11751237_a_at) / Fold change /veh DUSP10 (11751237_a_at) / RFU ID3 (11757404_x_at) / Fold change /veh ID3 (11757404_x_at) / RFU PLEKHG5 (11737974_s_at) / Fold change /veh PLEKHG5 (11737974_s_at) / RFU LRRC4B (11730491_at) / Fold change /veh LRRC4B (11730491_at) / RFU GIMAP4 (11747438_a_at) / Fold change /veh GIMAP4 (11747438_a_at) / RFU KRT8 (11758183_x_at) / Fold change /veh KRT8 (11758183_x_at) / RFU CNN1 (11734310_a_at) / Fold change /veh CNN1 (11734310_a_at) / RFU VPS37D (11726825_at) / Fold change /veh VPS37D (11726825_at) / RFU C10orf10 (11716522_x_at) / Fold change /veh C10orf10 (11716522_x_at) / RFU KIR2DL2 /// KIR2DL4 /// KIR2DL5A /// KIR2DL5B /// KIR2DS1 /// KIR2DS2 /// KIR2DS3 /// KIR2DS4 /// KIR3DL3 /// KIR3DL3 /// KIR3DS1 (11738374_at) / Fold change /veh KIR2DL2 /// KIR2DL4 /// KIR2DL5A /// KIR2DL5B /// KIR2DS1 /// KIR2DS2 /// KIR2DS3 /// KIR2DS4 /// KIR3DL3 /// KIR3DL3 /// KIR3DS1 (11738374_at) / RFU C1QL1 (11718748_at) / Fold change /veh C1QL1 (11718748_at) / RFU TMPRSS4 (11747572_a_at) / Fold change /veh TMPRSS4 (11747572_a_at) / RFU HAMP (11756126_x_at) / Fold change /veh HAMP (11756126_x_at) / RFU RNFT2 (11725882_a_at) / Fold change /veh RNFT2 (11725882_a_at) / RFU NR4A2 (11747474_a_at) / Fold change /veh NR4A2 (11747474_a_at) / RFU ABCC12 (11746883_a_at) / Fold change /veh ABCC12 (11746883_a_at) / RFU TMEM136 (11760407_x_at) / Fold change /veh TMEM136 (11760407_x_at) / RFU CLDN22 /// WWC2 (11732394_at) / Fold change /veh CLDN22 /// WWC2 (11732394_at) / RFU HLA-DPB1 (11760878_x_at) / Fold change /veh HLA-DPB1 (11760878_x_at) / RFU SPINT1 (11716480_a_at) / Fold change /veh SPINT1 (11716480_a_at) / RFU GAP43 (11754022_s_at) / Fold change /veh GAP43 (11754022_s_at) / RFU A4GNT (11735810_at) / Fold change /veh A4GNT (11735810_at) / RFU PRB3 (11715151_x_at) / Fold change /veh PRB3 (11715151_x_at) / RFU TUBB4B (11761932_at) / Fold change /veh TUBB4B (11761932_at) / RFU CAPN14 (11732068_a_at) / Fold change /veh CAPN14 (11732068_a_at) / RFU TMCC2 (11721928_a_at) / Fold change /veh TMCC2 (11721928_a_at) / RFU IRGQ (11745062_a_at) / Fold change /veh IRGQ (11745062_a_at) / RFU FAM174B (11720279_a_at) / Fold change /veh FAM174B (11720279_a_at) / RFU TMPRSS4 (11748680_a_at) / Fold change /veh TMPRSS4 (11748680_a_at) / RFU FAM212B (11763350_a_at) / Fold change /veh FAM212B (11763350_a_at) / RFU PLEKHG5 (11743358_a_at) / Fold change /veh PLEKHG5 (11743358_a_at) / RFU ZSCAN30 (11745921_a_at) / Fold change /veh ZSCAN30 (11745921_a_at) / RFU CMKLR1 (11741424_a_at) / Fold change /veh CMKLR1 (11741424_a_at) / RFU LOC101060620 /// MAPK8IP1 (11723275_at) / Fold change /veh LOC101060620 /// MAPK8IP1 (11723275_at) / RFU SPTSSB (11747773_x_at) / Fold change /veh SPTSSB (11747773_x_at) / RFU PRSS12 (11739890_at) / Fold change /veh PRSS12 (11739890_at) / RFU BIN1 (11741810_x_at) / Fold change /veh BIN1 (11741810_x_at) / RFU WNT11 (11732464_a_at) / Fold change /veh WNT11 (11732464_a_at) / RFU C10orf10 (11716521_a_at) / Fold change /veh C10orf10 (11716521_a_at) / RFU C5orf56 (11738089_at) / Fold change /veh C5orf56 (11738089_at) / RFU CYB561 (11721691_x_at) / Fold change /veh CYB561 (11721691_x_at) / RFU ANKRD19P (11752326_a_at) / Fold change /veh ANKRD19P (11752326_a_at) / RFU OR2T12 /// OR2T33 /// OR2T8 (11738714_s_at) / Fold change /veh OR2T12 /// OR2T33 /// OR2T8 (11738714_s_at) / RFU VCAN (11748164_a_at) / Fold change /veh VCAN (11748164_a_at) / RFU JSRP1 (11732532_at) / Fold change /veh JSRP1 (11732532_at) / RFU KRTAP10-11 (11738290_x_at) / Fold change /veh KRTAP10-11 (11738290_x_at) / RFU MYO3A (11730013_a_at) / Fold change /veh MYO3A (11730013_a_at) / RFU EBF3 (11725865_a_at) / Fold change /veh EBF3 (11725865_a_at) / RFU CAMK2N1 (11719241_x_at) / Fold change /veh CAMK2N1 (11719241_x_at) / RFU C5orf56 (11738088_a_at) / Fold change /veh C5orf56 (11738088_a_at) / RFU OLFML3 (11715873_a_at) / Fold change /veh OLFML3 (11715873_a_at) / RFU LOC100653217 /// NTM (11731650_a_at) / Fold change /veh LOC100653217 /// NTM (11731650_a_at) / RFU MAPK11 (11762145_a_at) / Fold change /veh MAPK11 (11762145_a_at) / RFU FIZ1 (11724087_x_at) / Fold change /veh FIZ1 (11724087_x_at) / RFU OASL (11726364_x_at) / Fold change /veh OASL (11726364_x_at) / RFU SOX15 (11748057_x_at) / Fold change /veh SOX15 (11748057_x_at) / RFU CD79A (11719716_a_at) / Fold change /veh CD79A (11719716_a_at) / RFU HIST1H1D (11736915_at) / Fold change /veh HIST1H1D (11736915_at) / RFU CASKIN2 (11723855_a_at) / Fold change /veh CASKIN2 (11723855_a_at) / RFU LOC730098 (11760151_x_at) / Fold change /veh LOC730098 (11760151_x_at) / RFU OR4N2 (11742367_at) / Fold change /veh OR4N2 (11742367_at) / RFU PRRT2 (11749266_a_at) / Fold change /veh PRRT2 (11749266_a_at) / RFU SNX32 (11753110_a_at) / Fold change /veh SNX32 (11753110_a_at) / RFU CDHR5 (11726645_a_at) / Fold change /veh CDHR5 (11726645_a_at) / RFU RCAN1 (11760418_a_at) / Fold change /veh RCAN1 (11760418_a_at) / RFU FAM167A (11723789_a_at) / Fold change /veh FAM167A (11723789_a_at) / RFU FAM26E (11764081_at) / Fold change /veh FAM26E (11764081_at) / RFU ISYNA1 (11749810_s_at) / Fold change /veh ISYNA1 (11749810_s_at) / RFU ACY1 (11761880_at) / Fold change /veh ACY1 (11761880_at) / RFU 11764098_at / Fold change /veh 11764098_at / RFU SAMD14 (11745864_x_at) / Fold change /veh SAMD14 (11745864_x_at) / RFU NPB (11741838_a_at) / Fold change /veh NPB (11741838_a_at) / RFU TMPRSS6 (11731388_a_at) / Fold change /veh TMPRSS6 (11731388_a_at) / RFU KRTAP10-2 (11738614_at) / Fold change /veh KRTAP10-2 (11738614_at) / RFU ARHGAP8 /// PRR5-ARHGAP8 (11727945_x_at) / Fold change /veh ARHGAP8 /// PRR5-ARHGAP8 (11727945_x_at) / RFU KRTAP5-7 /// NADSYN1 (11734609_at) / Fold change /veh KRTAP5-7 /// NADSYN1 (11734609_at) / RFU RASL12 (11751679_a_at) / Fold change /veh RASL12 (11751679_a_at) / RFU CDKN2B (11736163_a_at) / Fold change /veh CDKN2B (11736163_a_at) / RFU PRF1 (11729649_at) / Fold change /veh PRF1 (11729649_at) / RFU, ZNF638 /// ZNF638-IT1 / Fold change vs veh, ZNF638 /// ZNF638-IT1 / RFU, PANK3 / Fold change vs veh, PANK3 / RFU, SH3YL1 / Fold change vs veh, SH3YL1 / RFU, ZEB2 / Fold change vs veh, ZEB2 / RFU, NRIP1 / Fold change vs veh, NRIP1 / RFU, PTTG1IP / Fold change vs veh, PTTG1IP / RFU, CAPN2 / Fold change vs veh, CAPN2 / RFU, MED14 / Fold change vs veh, MED14 / RFU, SNORA58 / Fold change vs veh, SNORA58 / RFU, C1orf63 / Fold change vs veh, C1orf63 / RFU, LRRFIP1 / Fold change vs veh, LRRFIP1 / RFU, NDUFAF7 / Fold change vs veh, NDUFAF7 / RFU, SLC12A2 / Fold change vs veh, SLC12A2 / RFU, IBTK / Fold change vs veh, IBTK / RFU, ESF1 / Fold change vs veh, ESF1 / Fold change vs veh, TMEM50B / RFU, TAOK1 / Fold change vs veh, TAOK1 / RFU, ACBD3 / Fold change vs veh, ACBD3 / RFU, TMA16 / Fold change vs veh, TMA16 / RFU, RWDD3 / Fold change vs veh, RWDD3 / RFU, BCAT1 / Fold change vs veh, BCAT1 / RFU, EDEM3 / Fold change vs veh, EDEM3 / RFU, TMEM33 / Fold change vs veh, TMEM33 / RFU, WDR75 / Fold change vs veh, WDR75 / RFU, AHCTF1 / Fold change vs veh, AHCTF1 / RFU, TFRC / Fold change vs veh, TFRC / RFU, ZDHHC17 / Fold change vs veh, ZDHHC17 / RFU, NOM1 / Fold change vs veh, NOM1 / RFU, ARL8B / Fold change vs veh, ARL8B / RFU, ZBTB11 / Fold change vs veh, ZBTB11 / RFU, TAMM41 / Fold change vs veh, TAMM41 / RFU, KIAA1704 /// LOC100996395 / Fold change vs veh, KIAA1704 /// LOC100996395 / RFU, ING1 / Fold change vs veh, ING1 / RFU, TRMT61B / Fold change vs veh, TRMT61B / RFU, FUBP3 / Fold change vs veh, FUBP3 / RFU, TP53 / Fold change vs veh, TP53 / RFU, TNKS2 / Fold change vs veh, TNKS2 / RFU, ZFP14 / Fold change vs veh, ZFP14 / RFU, ACTR2 / Fold change vs veh, ACTR2 / RFU, PPP3R1 / Fold change vs veh, PPP3R1 / RFU, PIK3R1 / Fold change vs veh, PIK3R1 / RFU, HNRNPA1 / Fold change vs veh, HNRNPA1 / RFU, RNF170 / Fold change vs veh, RNF170 / RFU, ZNF28 / Fold change vs veh, ZNF28 / RFU, RNGTT / Fold change vs veh, RNGTT / RFU, OGT / Fold change vs veh, OGT / RFU, BRD1 / Fold change vs veh, BRD1 / RFU, MARS / Fold change vs veh, MARS / RFU, ZNF655 / Fold change vs veh, ZNF655 / RFU, FAHD1 / Fold change vs veh, FAHD1 / RFU, BDP1 / Fold change vs veh, BDP1 / RFU, LRRCC1 / Fold change vs veh, LRRCC1 / RFU, ARID1A / Fold change vs veh, ARID1A / RFU, ZNF146 / Fold change vs veh, ZNF146 / RFU, ZNF330 / Fold change vs veh, ZNF330 / RFU, GPN3 / Fold change vs veh, GPN3 / RFU, C9orf123 / Fold change vs veh, C9orf123 / RFU, N4BP2L2 / Fold change vs veh, N4BP2L2 / RFU, ARFIP1 / Fold change vs veh, ARFIP1 / RFU, FAM179B / Fold change vs veh, FAM179B / RFU, BCL10 / Fold change vs veh, BCL10 / RFU, UHRF1BP1L / Fold change vs veh, UHRF1BP1L / RFU, BET1 / Fold change vs veh, BET1 / RFU, CNOT2 / Fold change vs veh, CNOT2 / RFU, ZNF268 / Fold change vs veh, ZNF268 / Fold change vs veh, ZNF507 / RFU, DGCR2 / Fold change vs veh, DGCR2 / RFU, WDSUB1 / Fold change vs veh, WDSUB1 / Fold change vs veh, HSP90B1 /// MIR3652 / RFU, ADSS / Fold change vs veh, ADSS / RFU, GK / Fold change vs veh, GK / RFU, ZNF148 / Fold change vs veh, ZNF148 / RFU, TAF9 / Fold change vs veh, TAF9 / RFU, SLC1A5 / Fold change vs veh, SLC1A5 / RFU, SLMO2 / Fold change vs veh, SLMO2 / RFU, ABCC4 / Fold change vs veh, ABCC4 / RFU, LOC101060439 /// RAP1B / Fold change vs veh, LOC101060439 /// RAP1B / RFU, RFX7 / Fold change vs veh, RFX7 / RFU, GTPBP10 / Fold change vs veh, GTPBP10 / RFU, CNEP1R1 / Fold change vs veh, CNEP1R1 / RFU, BIVM-ERCC5 /// ERCC5 / Fold change vs veh, BIVM-ERCC5 /// ERCC5 / RFU, ILF3 / Fold change vs veh, ILF3 / RFU 11762660_at / Fold change /veh 11762660_at / RFU VCAN (11757783_s_at) / Fold change /veh VCAN (11757783_s_at) / RFU DDX43 (11728927_at) / Fold change /veh DDX43 (11728927_at) / RFU KRT8 (11758188_x_at) / Fold change /veh KRT8 (11758188_x_at) / RFU NKD1 (11759106_at) / Fold change /veh NKD1 (11759106_at) / RFU SRD5A1 (11742802_a_at) / Fold change /veh SRD5A1 (11742802_a_at) / RFU TPSAB1 /// TPSB2 (11721975_s_at) / Fold change /veh TPSAB1 /// TPSB2 (11721975_s_at) / RFU GSTM3 (11746129_a_at) / Fold change /veh GSTM3 (11746129_a_at) / RFU IL23R (11737362_x_at) / Fold change /veh IL23R (11737362_x_at) / RFU TMEM51 (11727254_a_at) / Fold change /veh TMEM51 (11727254_a_at) / RFU PIWIL2 (11732686_x_at) / Fold change /veh PIWIL2 (11732686_x_at) / RFU ORM1 (11744905_x_at) / Fold change /veh ORM1 (11744905_x_at) / RFU CCDC152 (11743942_at) / Fold change /veh CCDC152 (11743942_at) / RFU ECM1 (11717891_a_at) / Fold change /veh ECM1 (11717891_a_at) / RFU IL23R (11748794_a_at) / Fold change /veh IL23R (11748794_a_at) / RFU TNFAIP8L3 (11732012_x_at) / Fold change /veh TNFAIP8L3 (11732012_x_at) / RFU MBOAT4 (11741988_at) / Fold change /veh MBOAT4 (11741988_at) / RFU 11764193_at / Fold change /veh 11764193_at / RFU TMEM53 (11763286_at) / Fold change /veh TMEM53 (11763286_at) / RFU MAGEB2 (11727129_at) / Fold change /veh MAGEB2 (11727129_at) / RFU TMEM200A (11744735_a_at) / Fold change /veh TMEM200A (11744735_a_at) / RFU CCDC152 (11751479_a_at) / Fold change /veh CCDC152 (11751479_a_at) / RFU FAM211A (11726209_a_at) / Fold change /veh FAM211A (11726209_a_at) / RFU RGS16 (11746705_a_at) / Fold change /veh RGS16 (11746705_a_at) / RFU VCAN (11755009_s_at) / Fold change /veh VCAN (11755009_s_at) / RFU RHOB (11743442_s_at) / Fold change /veh RHOB (11743442_s_at) / RFU RGS16 (11720943_a_at) / Fold change /veh RGS16 (11720943_a_at) / RFU RGS16 (11720944_at) / Fold change /veh RGS16 (11720944_at) / RFU, VPS4B / Fold change vs veh, VPS4B / RFU, CREB1 / Fold change vs veh, CREB1 / RFU, DNAJC13 / Fold change vs veh, DNAJC13 / RFU, GNAQ / Fold change vs veh, GNAQ / RFU, CDK5R1 / Fold change vs veh, CDK5R1 / RFU, ZRANB3 / Fold change vs veh, ZRANB3 / RFU, CUL4A / Fold change vs veh, CUL4A / RFU, CCNY / Fold change vs veh, CCNY / RFU, UFL1 / Fold change vs veh, UFL1 / RFU, COG3 / Fold change vs veh, COG3 / RFU, DIAPH2 / Fold change vs veh, DIAPH2 / RFU, SKA2 / Fold change vs veh, SKA2 / RFU, AFF3 / Fold change vs veh, AFF3 / RFU, LMF1 / Fold change vs veh, LMF1 / RFU, IPO11 / Fold change vs veh, IPO11 / RFU, DFFB / Fold change vs veh, DFFB / RFU, FOXP1 / Fold change vs veh, FOXP1 / RFU, CARD8 / Fold change vs veh, CARD8 / RFU, STRN3 / Fold change vs veh, STRN3 / RFU, ADK / Fold change vs veh, ADK / RFU, RASSF2 / Fold change vs veh, RASSF2 / RFU, WIPF1 / Fold change vs veh, WIPF1 / RFU, LARP1B / Fold change vs veh, LARP1B / RFU, RASA1 / Fold change vs veh, RASA1 / RFU, RB1 / Fold change vs veh, RB1 / RFU, PPFIA1 / Fold change vs veh, PPFIA1 / RFU, MAT2A / Fold change vs veh, MAT2A / RFU, CCT5 / Fold change vs veh, CCT5 / RFU, WDR92 / Fold change vs veh, WDR92 / RFU, CUX1 / Fold change vs veh, CUX1 / RFU, TTC7A / Fold change vs veh, TTC7A / RFU, TMEM135 / Fold change vs veh, TMEM135 / RFU, DEPTOR / Fold change vs veh, DEPTOR / RFU, CPM / Fold change vs veh, CPM / RFU, DNAJB6 / Fold change vs veh, DNAJB6 / RFU, CACNA2D3 / Fold change vs veh, CACNA2D3 / RFU, DTX4 / Fold change vs veh, DTX4 / RFU, TFCP2 / Fold change vs veh, TFCP2 / RFU, GMCL1 /// GMCL1P1 / Fold change vs veh, GMCL1 /// GMCL1P1 / RFU, AEBP2 / Fold change vs veh, AEBP2 / RFU, SNHG1 /// SNORD22 /// SNORD25 /// SNORD26 /// SNORD27 /// SNORD28 /// SNORD29 /// SNORD31 / Fold change vs veh, SNHG1 /// SNORD22 /// SNORD25 /// SNORD26 /// SNORD27 /// SNORD28 /// SNORD29 /// SNORD31 / Fold change (Aza/veh), C12orf56 (ProbeSet 11735607_a_at) / Fold change (ACY-1035/veh), C12orf56 (ProbeSet 11735607_a_at) / Fold change (Aza/veh), FGFR1OP (ProbeSet 11751329_s_at) / Fold change (ACY-1035/veh), FGFR1OP (ProbeSet 11751329_s_at) / Fold change (Aza/veh), VPS36 (ProbeSet 11739960_a_at) / Fold change (ACY-1035/veh), VPS36 (ProbeSet 11739960_a_at) / RFU SYPL1 (11715823_x_at) / Fold change /veh SYPL1 (11715823_x_at) / RFU IGFBP7 (11715501_s_at) / Fold change /veh IGFBP7 (11715501_s_at) / RFU REEP3 (11722064_at) / Fold change /veh REEP3 (11722064_at) / RFU IGLL1 (11728026_x_at) / Fold change /veh IGLL1 (11728026_x_at): dose or concentration left out as unconfirmed
Settings: ProbeSet 11745428_a_at; LIST D

In the case of `Nc1ccc(-c2cccs2)cc1NC(=O)c1ccc2c(c1)cc(C1CC1)n2CCN1CCOCC1` [ACY-1035], the “Fold change vs veh, DFFB” value is reported as 0.87.
